Values after ≈ are worked out from the molar mass of the structure shown. Values joined by “and” are separate entries in the source; they are usually repeats but may differ in a detail not shown here. Equal entries are not always repeated.
Key:
[1] = target: CYP2E1 (Homo sapiens, UniProt P05181); conditions: human liver microsomes, CYP2E1, N9 0.01–100 μmol L^-1
[2] = test system: mycolic acids synthesis in M. tuberculosis cells; assay type: cell-based; conditions: N9 at 10 and 25 μg/mL, 18 hours
[3] = test system: M. tuberculosis H37Rv; experiment: Checkerboard assay, two-drug combination with REMA readout; assay type: cell-based, Mycobacterium tuberculosis; conditions: for MIC Combined: checkerboard, three independent experiments
[4] = target: CYP2D6 (Homo sapiens, UniProt P10635); conditions: human liver microsomes, CYP2D6, N9 0.01–100 μmol L^-1
Chain of CYP2D6 (P10635 whole entry): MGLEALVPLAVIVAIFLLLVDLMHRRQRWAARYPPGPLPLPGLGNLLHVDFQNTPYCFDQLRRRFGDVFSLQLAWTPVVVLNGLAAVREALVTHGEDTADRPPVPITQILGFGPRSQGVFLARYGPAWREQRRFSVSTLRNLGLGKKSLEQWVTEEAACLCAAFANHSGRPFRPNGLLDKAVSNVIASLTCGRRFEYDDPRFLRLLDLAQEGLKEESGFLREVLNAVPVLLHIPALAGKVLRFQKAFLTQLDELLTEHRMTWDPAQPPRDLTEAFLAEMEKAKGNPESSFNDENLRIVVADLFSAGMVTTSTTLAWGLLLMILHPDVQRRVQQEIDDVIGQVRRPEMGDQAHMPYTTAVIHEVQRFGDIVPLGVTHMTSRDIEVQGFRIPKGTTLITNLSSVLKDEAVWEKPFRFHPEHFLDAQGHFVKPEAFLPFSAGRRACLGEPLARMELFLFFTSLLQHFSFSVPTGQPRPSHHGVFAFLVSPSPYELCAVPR

[5] = target: CYP2C19 (Homo sapiens, UniProt P33261); conditions: human liver microsomes, CYP2C19, N9 0.01–100 μmol L^-1
Chain of CYP2C19 (P33261 whole entry): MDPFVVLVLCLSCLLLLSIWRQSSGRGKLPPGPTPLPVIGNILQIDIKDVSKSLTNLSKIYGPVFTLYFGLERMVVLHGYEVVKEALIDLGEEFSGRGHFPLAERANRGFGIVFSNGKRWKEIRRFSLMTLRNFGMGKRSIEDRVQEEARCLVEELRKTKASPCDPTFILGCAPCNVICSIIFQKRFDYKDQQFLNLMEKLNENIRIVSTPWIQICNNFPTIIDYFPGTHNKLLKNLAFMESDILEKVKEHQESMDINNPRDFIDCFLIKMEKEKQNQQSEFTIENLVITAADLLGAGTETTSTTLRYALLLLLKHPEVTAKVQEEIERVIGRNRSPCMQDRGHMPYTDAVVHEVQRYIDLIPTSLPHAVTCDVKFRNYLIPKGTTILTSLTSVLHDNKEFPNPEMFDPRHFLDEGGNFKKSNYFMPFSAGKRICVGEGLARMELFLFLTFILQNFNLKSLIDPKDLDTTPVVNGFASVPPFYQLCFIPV

[6] = test system: M. tuberculosis pNIP::KatG(WT); experiment: microbe, parasite or virus in culture; assay type: cell-based; conditions: Mycobacterium tuberculosis
[7] = test system: CYP3A4/5; experiment: in vitro; conditions: human, microsomes, pH 7.4

Chain of CYP2E1 (P05181 whole entry): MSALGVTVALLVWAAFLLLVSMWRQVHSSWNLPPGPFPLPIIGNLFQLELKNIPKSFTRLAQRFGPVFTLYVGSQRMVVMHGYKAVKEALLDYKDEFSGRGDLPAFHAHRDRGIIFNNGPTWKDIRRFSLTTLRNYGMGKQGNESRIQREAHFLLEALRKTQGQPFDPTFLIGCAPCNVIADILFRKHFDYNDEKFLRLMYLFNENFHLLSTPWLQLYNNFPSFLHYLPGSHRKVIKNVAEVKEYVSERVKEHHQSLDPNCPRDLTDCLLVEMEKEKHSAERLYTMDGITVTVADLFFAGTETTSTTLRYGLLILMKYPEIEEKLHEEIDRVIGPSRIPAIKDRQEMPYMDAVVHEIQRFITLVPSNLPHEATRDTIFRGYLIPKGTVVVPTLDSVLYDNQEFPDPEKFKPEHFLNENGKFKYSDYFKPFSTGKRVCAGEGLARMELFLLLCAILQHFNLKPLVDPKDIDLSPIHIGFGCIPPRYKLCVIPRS

In the case of `COc1ccc(OC)c(C(=O)/C=C/c2ccc3nccnc3c2)c1` [N9], the “percentage of remaining enzyme activity” value [1] is reported as “approximately 100%”, the “Effect on synthesis of mycolic acids and non-hydroxylated fatty acids” value [2] is reported as “did not inhibit” and the “FICI (fractional inhibitory concentration index)” value ([3]; N9 combined with MFX) is reported as “below 0.5”. For the same compound, the “MIC Combined” value ([3]; combination N9 + EMB) was 0.78 µg/mL, the “MIC Combined” value ([3]; combination N9 + INH) was 0.78 µg/mL and the “MIC Combined” value ([3]; combination N9 + RIF) was 0.78 µg/mL and 1.56 µg/mL. The “percentage of remaining enzyme activity” value [4] was “approximately 100%”, the “percentage of remaining enzyme activity” value [5] was “approximately 100%” and the MIC [6] was 3.13 µg/mL (≈ 9.77 µM). For the same compound, the IC50 [7] was over 100 µM.

— paper PMC6095594, “Pre-clinical evaluation of quinoxaline-derived chalcones in tuberculosis” (PLoS ONE, 2018)
